Laboratory results as given in patent publication US9259350B2, “Ophthalmic devices for delivery of beneficial agents” (CooperVision International Holding Company, LP, priority 2012, dated 2016).

What was measured:
[1] = Drug uptake by dry vs wet (hydrated) Proclear lenses after autoclave; type: physicochemical; conditions: for % Δ Dry vs Wet (drug uptake): Proclear lens; for Drug Uptake, Wet Lens: hydrated Proclear lens; for Drug Uptake, Wet Lens / Drug Uptake, Dry Lens: autoclaved, n=3; for Drug Uptake, Dry Lens: non-hydrated Proclear lens
Description: The ability of hydrated and non-hydrated (dry) Proclear lenses to take up olopatadine, ketotifen, and cromolyn was evaluated. At physiological pH, olopatadine is zwitterionic, ketotifen is positively charged, and cromolyn is negatively charged. […] The dry lenses were removed from their original molds, packaged with 3 ml of each drug solution without any intermediate hydration step and autoclaved. For controls, each drug solution was packaged without a lens and autoclaved. After autoclave, the amount of drug in each packaging solution was measured by HPLC.

[2] = PSS uptake by hydrated and non-hydrated Proclear lenses; type: physicochemical
[3] = εPLL uptake by hydrated Proclear lenses, packaging solutions of different ionic strength; type: physicochemical
Description: (§1) For example, hydrated Proclear contact lenses were packaged and autoclaved in PBS having an ionic strength of about 0.2 and comprising 500 ppm εPLL, an antimicrobial peptide. These lenses took up an average of 5 μg of the εPLL/lens. […] Thus, in various examples, the packaging solution has an ionic strength of less than about 0.15, 0.10, or 0.05 as calculated by the equation: […]

[4] = εPLL uptake by non-hydrated Proclear lenses in different buffers; type: physicochemical; conditions: dry Proclear lens, autoclaved, n=3
Description: The uptake and release of εPLL from non-hydrated (i.e. dry) Proclear lenses was evaluated. The εPLL (Chisso Corporation, Tokyo, Japan) was prepared at a concentration of 500 ppm in three different buffers, PBS, TRIS buffered saline (0.023% tris(hydroxymethyl)methylamine, 0.544% trizma hydrochloride, 0.819% NaCl; TBS), or Tris-sorbitol. Lenses were individually packaged, in triplicate, in 1.2 ml of each εPLL preparation and autoclaved. Additionally, vials containing 1.2 ml 500 ppm εPLL in each buffer with no lens (control vials) were also autoclaved. The amounts of εPLL present in the post-autoclave solution of the test lens vials and in the control vial were determined by cationic size exclusion chromatography using a sample injection volume of 5 μl, a Water Acquity UPLC BEH 125 SEC 1.7 μm 4.6×150 mm at room temperature, and a flow rate of 0.4 ml/min using 90% 0.2M NaCl/0.1% TFA in H20: 10% ACN isocratically. The average of the amount of εPLL taken up by each test lens (n=3) was calculated by subtracting the amount of εPLL present in the post-autoclave solution of the test lens vial from the amount of εPLL present in the control vial. Lenses packaged with 500 ppm εPLL in PBS took up an average of 88 μg εPLL. Lenses packaged with 500 ppm εPLL in TBS took up 47 μg εPLL, and lenses packaged with 500 ppm εPLL in Tris-sorbitol took up 208 μg εPLL.

[5] = system: Serratia marcescens; assay: Antimicrobial activity of εPLL-packaged Proclear lenses; type: cell-based
Description: as §1

[6] = high concentration: 250 μg/ml ketotifen, 1000 μg/ml olopatadine, 2000 μg/ml cromolyn
[7] = low concentration: 25 μg/ml ketotifen, 200 μg/ml olopatadine, 400 μg/ml cromolyn
[8] = high concentration: 250 μg/ml ketotifen (borate buffer), 1000 μg/ml olopatadine (PBS), 2000 μg/ml cromolyn (PBS)
[9] = low concentration: 25 μg/ml ketotifen (borate buffer), 200 μg/ml olopatadine (PBS), 400 μg/ml cromolyn (PBS)

Compound: CN1CCC(=C2c3ccccc3CC(=O)c3sccc32)CC1 [ketotifen]
- % Δ Dry vs Wet (drug uptake) [1, 6]: −6%
- % Δ Dry vs Wet (drug uptake) [1, 7]: −17%
- Drug Uptake, Wet Lens [1, 8]: 122 µg
- Drug Uptake, Wet Lens [1, 9]: 12 µg
- Drug Uptake, Dry Lens [1, 8]: 115 µg
- Drug Uptake, Dry Lens [1, 9]: 10 µg

Compound: C=Cc1ccc(S(=O)(=O)[O-])cc1.[Na+] [compound 206, styrene sulfonate]
- uptake by dry lens compared to wet lens ([2]; Proclear lens): significantly more
- % Δ Dry vs Wet (uptake) ([2]; Proclear lens, 0.01 mole/liter PSS, 48 hours): 16%
- Uptake, Wet Lens ([2]; hydrated Proclear lens, 0.01 mole/liter PSS, 48 hours, n=3): 92 µg
- Uptake, Dry Lens ([2]; non-hydrated Proclear lens, 0.01 mole/liter PSS, 48 hours, n=3): 110 µg

Compound: epsilon polylysine [εPLL]
- εPLL uptake (average) ([3]; hydrated Proclear lenses autoclaved in PBS, ionic strength about 0.2, 500 ppm εPLL): 5 μg/lens
- εPLL uptake (average) ([3]; hydrated Proclear lenses autoclaved in TRIS buffer with 2% sorbitol, ionic strength about 0.02): about 120 μg/lens
- εPLL uptake (average) ([4]; 500 ppm εPLL in PBS): 88 µg
- εPLL uptake ([4]; 500 ppm εPLL in TBS): 47 µg
- εPLL uptake ([4]; 500 ppm εPLL in Tris-sorbitol): 208 µg
- antimicrobial activity against Serratia marcescens ([5]; Proclear lenses autoclaved in PBS with 500 ppm εPLL): no antimicrobial activity
- kill of Serratia marcescens ([5]; Proclear lenses autoclaved in TRIS buffer with 2% sorbitol with εPLL): ~4 log

Compound: CN(C)CC/C=C1/c2ccccc2COc2ccc(CC(=O)O)cc21 [olopatadine]
- % Δ Dry vs Wet (drug uptake) [1, 6]: 6%
- % Δ Dry vs Wet (drug uptake) [1, 7]: 16%
- Drug Uptake, Wet Lens [1, 8]: 202 µg
- Drug Uptake, Wet Lens [1, 9]: 45 µg
- Drug Uptake, Dry Lens [1, 8]: 215 µg
- Drug Uptake, Dry Lens [1, 9]: 52 µg
